Values quoted from earlier work in US20220233487A1, “PREPARATION FOR USE IN WEIGHT MANAGEMENT COMPRISING OMEGA-3 FATTY ACID SALTS AND BASIC AMINO ACIDS” (Evonik Operations GmbH, priority 2019, published 2022).

Structure (SMILES): N=C(N)NCCC[C@H](N)C(=O)O [L-arginine]
- pKa-values: pKCOOH: pKCOOH: 2.0
